{"source": "patent US12016849B2", "about": "“Magnesium picolinate compositions and methods of use” (Bonafide Health, LLC, priority 2016, dated 2024)", "key": {"[1]": {"test": "Total magnesium in rat sera, liver and brain by atomic absorption spectroscopy", "format": "in vivo, Wistar rats", "details": "rats, 500 mg elemental Mg/kg diet, oral, 8 weeks; compared to magnesium oxide and control", "method": "(§1) Seven male Wistar rats per treatment arm (age: 8 week, weight: 180±20 g) were housed in a controlled environment with a 12:12-h light-dark cycle at 22° C. and were provided with rat chow and water ad libitum. Following a 7-day acclimatization period, animals were randomly be divided into the following groups: • 1. Control (no treatment); • 2. Control+MgO (500 mg elemental Mg/kg diet), • 3. Control+MgPic (500 mg elemental Mg/kg diet), • 4. HFD (fed with high fat diet); • 5. HFD+MgO (500 mg elemental Mg/kg diet), • 6. HFD+MgPic (500 mg elemental Mg/kg diet).\n(§2) The MgPic administered was prepared in accordance with the methods of the inventions described herein. All treatments were administered daily as an oral supplement per day for 8 weeks. […] The rats were subjected to several study protocols during the treatment period.\nLaboratory Analyses—Following the treatment period, plasma was extracted and used for the determination of glucose, insulin, visceral fat, magnesium, and leptin concentrations, which was performed with an automatic analyzer (Samsung). Brain antioxidant enzyme catalase (CAT) and glutathione peroxidase (GSH-Px) were measured using a commercially available assay kit (Cayman Chemical, Ann Arbor, Mich., USA) according to the manufacturer's instructions. […] Morris Water Maze—The water maze test was performed according to methods known to those of skill in the art. The water maze was conducted in a large circular black pool (160 cm in diameter) containing water (temperature at 24±2° C.) that had been colored with a nontoxic black dye to contrast the rat. A 12-cm-diameter black-colored round platform was placed 1.5 cm below the water surface. All of the rats were placed in the water maze room 1 h before the water maze trial daily. […] The swimming pathway and latency in locating the hidden platform was recorded for each trial. […] All samples were processed to produce clear digests, and the total magnesium in each sample was measured by flame AAS (Perkin Elmer) using established and fully verified methods. […]"}, "[2]": {"test": "Magnesium and picolinic acid Cmax and Tmax, double-blind clinical study", "format": "in vivo", "details": "500 mg magnesium picolinate vs control 916 mg picolinic acid and 90 mg magnesium", "method": "In a double-blind clinical study, 30 subjects are divided into two groups (n=15). The control group receives a supplement containing 916 mg picolinic acid and 90 mg of magnesium. The trial group receives a supplement containing 500 mg of magnesium picolinate (46 mg of magnesium and 454 mg of picolinate), or one-half the total dose of picolinate and magnesium of the control group. Magnesium and picolinic acid Cmax (ng/mL) and Tmax (minutes) are measured in each subject. […] Thus, magnesium picolinate provides 80-120% of the maximum serum concentration of magnesium and picolinic acid relative to twice the dose of magnesium alone, or relative to twice the dose of picolinic acid alone. The mean magnesium and picolinic acid Tmax for the trial group are between 50-80% of the control group at each time point. Thus, magnesium picolinate delivers the maximum amount of bioavailable magnesium and picolinic acid in 50-80% less time relative to twice the dose of magnesium alone, or relative to twice the dose of picolinic acid alone."}, "[3]": {"test": "Solubility of the isolated product", "format": "physicochemical", "method": "Picolinic acid (3.7 g, 30 mmol) and magnesium acetate tetrahydrate (3.2 g, 15 mmol) were suspended in 25 mL of water. The slurry was stirred and heated at reflux overnight and then filtered to isolate 1.7 grams of crystalline MgPic. The remaining filtrate was cooled and evaporated to dryness, providing an additional 2.2 grams of amorphous MgPic with traces of residual acetate. The acetate was removed by washing the solid with ethanol to provide a 96% overall yield of MgPic (crystalline and amorphous). The ^1H-NMR spectrum of the product (FIG. 2) is consistent with the spectrum of a metal picolinate salt. […] The product contained acceptable trace levels of barium and other heavy metals of less than 200 ppm of each element tested. As such, embodiments of a MgPic composition may comprise less than about 200 ppm of barium and/or other heavy metals. In some embodiments, these compositions may comprise less than about 150, less than about 100, less than 50, or less than 20 ppm of barium and/or other heavy metals.\nPicolinic acid and magnesium oxide (0.5 equiv.) were added to water, giving a white, stirrable slurry. The slurry was heated to 95-100° C. for 3 hours, and more water was added, tripling the initial amount of water [note: the procedure was based on the preparation of a related magnesium salt using magnesium oxide, in which the initial slurry completely dissolved at 80-90° C. […]"}, "[4]": {"test": "Serum levels of magnesium and picolinic acid, double-blind clinical study", "format": "in vivo", "details": "500 mg magnesium picolinate vs control 916 mg picolinic acid and 90 mg magnesium; at 1, 4, 6 and 8 hours", "method": "In a double-blind clinical study, 30 subjects are divided into two groups (n=15). The control group receives a supplement containing 916 mg picolinic acid and 90 mg of magnesium. The trial group receives a supplement containing 500 mg of magnesium picolinate (46 mg of magnesium and 454 mg of picolinate), or one-half the total dose of picolinate and magnesium of the control group. Serum levels of picolinic acid (ng/mL) and serum levels of magnesium (ng/mL) are measured at one hour, four hours, six hours, and eight hours. The mean serum magnesium levels for the trial group are between 80-120% of the control group at each time point. The mean serum picolinic acid levels for the trial group are between 80-120% of the control group at each time point."}, "[5]": {"test": "Stability of magnesium picolinate (hygroscopicity, storage, light)", "format": "physicochemical", "excerpt": "Magnesium picolinate compositions of the invention were stable during storage at room temperature."}, "[6]": {"test": "Cerebrospinal fluid (CSF) levels of magnesium and picolinic acid, double-blind clinical study", "format": "in vivo", "details": "500 mg magnesium picolinate vs control 916 mg picolinic acid and 90 mg magnesium; four and eight hours, spinal tap", "method": "In a double-blind clinical study, 30 subjects are divided into two groups (n=15). The control group receives a supplement containing 916 mg picolinic acid and 90 mg of magnesium. The trial group receives a supplement containing 500 mg of magnesium picolinate (46 mg of magnesium and 454 mg of picolinate), or one-half the total dose of picolinate and magnesium of the control group. CSF levels of picolinic acid (ng/mL) and serum levels of magnesium (ng/mL) are measured at four hours and eight hours via spinal tap. The mean CSF magnesium levels for the trial group are between 80-120% of the control group at each time point. The mean CSF picolinic acid levels for the trial group are between 80-120% of the control group at each time point. Thus, magnesium picolinate provides 80-120% of the brain penetration of magnesium, and 80-120% of the brain penetration of picolinic acid, relative to twice the dose of magnesium and picolinic acid alone."}, "[7]": {"test": "Magnesium and picolinic acid AUC0→∞, double-blind clinical study", "format": "in vivo", "details": "500 mg magnesium picolinate vs control 916 mg picolinic acid and 90 mg magnesium", "method": "In a double-blind clinical study, 30 subjects are divided into two groups (n=15). The control group receives a supplement containing 916 mg picolinic acid and 90 mg of magnesium. The trial group receives a supplement containing 500 mg of magnesium picolinate (46 mg of magnesium and 454 mg of picolinate), or one-half the total dose of picolinate and magnesium of the control group. Magnesium and picolinic acid AUC0→∞ (ng·h/mL) are measured in each subject. The mean magnesium and picolinic acid AUC0→∞ for the trial group are between 80-120% of the control group at each time point."}, "[8]": {"tested_on": "male Wistar rats", "test": "Laboratory analyses after 8 weeks of treatment (glucose, insulin, visceral fat, leptin)", "format": "in vivo", "details": "500 mg elemental Mg/kg diet, oral", "method": "as §1, §2\nLaboratory Analyses—Following the treatment period, plasma was extracted and used for the determination of glucose, insulin, visceral fat, magnesium, and leptin concentrations, which was performed with an automatic analyzer (Samsung). Brain antioxidant enzyme catalase (CAT) and glutathione peroxidase (GSH-Px) were measured using a commercially available assay kit (Cayman Chemical, Ann Arbor, Mich., USA) according to the manufacturer's instructions. […] Morris Water Maze—The water maze test was performed according to methods known to those of skill in the art. The water maze was conducted in a large circular black pool (160 cm in diameter) containing water (temperature at 24±2° C.) that had been colored with a nontoxic black dye to contrast the rat. A 12-cm-diameter black-colored round platform was placed 1.5 cm below the water surface. All of the rats were placed in the water maze room 1 h before the water maze trial daily. The rats were given a maximum time of 60 s to find the hidden platform, and they were allowed to remain on the platform for 30 s. […] The rats were given a daily session of four trials per day for six consecutive days. The swimming pathway and latency in locating the hidden platform was recorded for each trial. On the seventh day, the time taken to reach the quadrant and the number of crossings of the target quadrant was tested with the platform removed. […] It is noted that rats fed a high fat diet experience diminished memory function. […] Atomic Absorption Spectroscopy—Rat sera, liver, brains were removed and the cerebral cortex and hippocampus were dissected for analysis after the treatment period. The tissues were stored at −70° C. until analysis using atomic absorption spectroscopy (AAS). […] All samples were processed to produce clear digests, and the total magnesium in each sample was measured by flame AAS (Perkin Elmer) using established and fully verified methods. […]"}, "[9]": {"tested_on": "male Wistar rats", "test": "Morris water maze", "format": "in vivo", "method": "as §1\n(§3) The MgPic administered was prepared in accordance with the methods of the inventions described herein. […]\n(§4) Laboratory Analyses—Following the treatment period, plasma was extracted and used for the determination of glucose, insulin, visceral fat, magnesium, and leptin concentrations, which was performed with an automatic analyzer (Samsung). Brain antioxidant enzyme catalase (CAT) and glutathione peroxidase (GSH-Px) were measured using a commercially available assay kit (Cayman Chemical, Ann Arbor, Mich., USA) according to the manufacturer's instructions. […] The swimming pathway and latency in locating the hidden platform was recorded for each trial. […] All samples were processed to produce clear digests, and the total magnesium in each sample was measured by flame AAS (Perkin Elmer) using established and fully verified methods. […]"}, "[10]": {"tested_on": "Brain antioxidant enzyme catalase (CAT)", "test": "Brain antioxidant enzyme activity, commercial assay kit", "format": "in vivo, Wistar rats", "details": "rats, 500 mg elemental Mg/kg diet, 8 weeks; compared to magnesium oxide", "method": "as §1, §3, §4"}, "[11]": {"tested_on": "glutathione peroxidase (GSH-Px)", "test": "Brain antioxidant enzyme activity, commercial assay kit", "format": "in vivo, Wistar rats", "details": "rats, 500 mg elemental Mg/kg diet, 8 weeks; compared to magnesium oxide", "method": "as §1, §3, §4"}, "[12]": {"details": "compared to control specimens and those given magnesium oxide"}}, "data": [{"smiles": "O=C(O)c1ccccn1", "note": "[MgPic, magnesium picolinate]", "values": [{"measurement": "magnesium levels in brain (FIG. 4A-4C)", "setting": "[1]", "value": "substantially improved magnesium levels"}, {"measurement": "magnesium levels in liver (FIG. 4A-4C)", "setting": "[1]", "value": "substantially improved magnesium levels"}, {"measurement": "magnesium levels in serum (FIG. 4A-4C)", "setting": "[1]", "value": "substantially improved magnesium levels"}, {"measurement": "mean magnesium Cmax, relative to control group", "setting": "[2]", "value": "80-120%"}, {"measurement": "mean magnesium Tmax, relative to control group", "setting": "[2]", "value": "50-80%"}, {"measurement": "mean picolinic acid Cmax, relative to control group", "setting": "[2]", "value": "80-120%"}, {"measurement": "mean picolinic acid Tmax, relative to control group", "setting": "[2]", "value": "50-80%"}, {"measurement": "solubility in water", "setting": "[3]; product of Example 2, clear and colorless solution", "value": "readily soluble in water"}, {"measurement": "solubility in ethanol/water", "setting": "[3]; product of Example 13", "value": "soluble in ethanol/water"}, {"measurement": "mean serum magnesium levels, relative to control group", "setting": "[4]", "value": "80-120%"}, {"measurement": "mean serum picolinic acid levels, relative to control group", "setting": "[4]", "value": "80-120%"}, {"measurement": "stability during storage", "setting": "[5]; 25° C./40% relative humidity", "value": "stable"}, {"measurement": "stability during storage", "setting": "[5]; 40° C./75% relative humidity", "value": "stable"}, {"measurement": "stability / color change on exposure to light", "setting": "[5]; listed as MgPic composition", "value": "stable on exposure to light"}, {"measurement": "stability during storage", "setting": "[5]; room temperature", "value": "stable"}, {"measurement": "mean CSF magnesium levels, relative to control group", "setting": "[6]", "value": "80-120%"}, {"measurement": "mean CSF picolinic acid levels, relative to control group", "setting": "[6]", "value": "80-120%"}, {"measurement": "mean magnesium AUC0→∞, relative to control group", "setting": "[7]", "value": "80-120%"}, {"measurement": "mean picolinic acid AUC0→∞, relative to control group", "setting": "[7]", "value": "80-120%"}, {"measurement": "glucose (FIG. 4D-4E)", "setting": "[8]; [12]", "value": "reduced amounts"}, {"measurement": "insulin (FIG. 4D-4E)", "setting": "[8]; [12]", "value": "reduced amounts"}, {"measurement": "leptin secretion (FIG. 4G)", "setting": "[8]; compared to magnesium oxide", "value": "unexpectedly superior reduction of leptin secretion"}, {"measurement": "visceral fat (FIG. 4F)", "setting": "[8]; compared to magnesium oxide", "value": "unexpectedly improved reduction of visceral fat"}, {"measurement": "memory function: time taken to reach the quadrant with the hidden platform (FIG. 5)", "setting": "[9]; rats fed a high fat diet and rats fed the control diet, 500 mg elemental Mg/kg diet", "value": "improved memory function"}, {"measurement": "memory function (FIG. 6)", "setting": "[9]; rats fed a high fat diet, compared to rats administered magnesium oxide", "value": "improvements"}, {"measurement": "brain antioxidant enzyme (CAT) activity (FIG. 7A)", "setting": "[10]", "value": "superior improvements of increasing brain antioxidant enzyme (CAT) activity"}, {"measurement": "brain antioxidant enzyme (GSH-Px) activity (FIG. 7B)", "setting": "[11]", "value": "superior improvements of increasing brain antioxidant enzyme (GSH-Px) activity"}]}, {"smiles": "O=C(O)c1ccccn1", "note": "[amorphous solid, magnesium picolinate]", "values": [{"measurement": "signs of degradation", "setting": "[5]; after 30 days at 75% relative humidity and 40° C.", "value": "no signs of degradation"}, {"measurement": "signs of degradation", "setting": "[5]; after 60 days at 40% relative humidity and 25° C.", "value": "no signs of degradation"}, {"measurement": "hygroscopicity", "setting": "[5]; as measured by weight", "value": "not hygroscopic"}, {"measurement": "stability / color change on exposure to light", "setting": "[5]", "value": "did not change color"}]}]}
